Reference: US9518038B2, “Condensation product of theanine derivative and carboxylic acid coumarin derivative, its intermediate, preparation method and use thereof” (SHANDONG YINGDONG YINGHAO BIOTECHNOLOGY, INC., priority 2012, dated 2016)
pEC50, pIC50: −log10 of the molar value. Like-named read-outs stand apart in the source and are kept apart here. Marks after values point to notes of the source that are not given here.

Assays:
[1] = system: nucleoprotein factor NF-κB (p65)-DNA binding activity; assay: NF-κB (p65)-DNA binding activity (EMSA); type: cell-based
Source text: The in-vitro experiment of the inhibitory effect against the NF-κB(p65)-DNA binding activity was applied with the chemiluminescent EMSA kit of Pierce Biotechnology Company of the U.S., the experimental method was strictly operated according to the description of the kit and the specific procedure were as follows:
(1) Preparation of EMSA gel
The cells treated by the drugs were extracted by the nucleoprotein extract solution (provided by Beyotime Biotechnology of Institute) to obtain the nucleoprotein extracts, and 10 μg/pipe of the nucleoprotein extracts were respectively used for sample reaction and electrophoresis detection and analysis shown in the following table.
(2) Pre-electrophoresis: the gel was fixed in an electrophoresis tank, which was filled with a 0.5×TBE electrophoresis buffer solution, and electrophoresed under 10V/cm for 90 min. The probe binding reaction was as follows:
The components were added in sequence into the EP pipe according to the above table, uniformly mixed and stood at room temperature for 15 min to eliminate possible non-specific binding of probe and protein. 1 μl of biotin-labeled probe NF-κB was respectively added and stood at room temperature for 20 min.
(4) Film transfer: the process of transferring the nucleoprotein factors and the binding probe on the EMSA gel to the nylon film was electrically transferred under 380 mA in ice bath for 40 min.
(5) Ultraviolet cross-linking: the nylon film was placed under a 254 nm ultraviolet lamp and irradiated for 15 min.
(6) Detection of the biotin-labeled probe by chemiluminescence: the cross-linked nylon film was blocked with the blocking solution, a treated film was subjected to X-ray exposure, developing, and fixation according to the requirements of the kit, and the results were analyzed.

[2] = system: Dvl-2; assay: Western Blotting, Dvl-2 level; type: cell-based; details: human liver cancer cells, Lewis lung cancer cells and other cancer cell lines and tumor tissues, read-out: Effective concentration (IC50) for inhibition of Dvl-2
Source text: (§1) Antibodies: primary antibodies of VEGFR, EGFR, c-Met, K-Ras, H-Ras, Akt, NF-κB, Cyclin D1, ER-alpha, Dvl-1, Dvl-2, Dvl-3, MMP-9, MMP2, β-catenin, Bcl-2, Bax, p53, p21, E-cadherin and Caspase3 protein, purchased from American Cell Signaling Technology Company and Santa Cruz Technology Company; and H3 acetylation, H4 acetylation and HDAC (HDAC3, HDAC4 and the like) Antibody Sample Kits, purchased from Cell Signaling Technology Company of the U.S.
(§2) (3) polyacrylamide gel electrophoresis (SDS-PAGE): an equal amount of protein lysate sample was used to separate protein, film transfer, and blocking, treated with appropriate primary antibodies and secondary antibodies in sequence, and the film was washed, then the color was developed with ECL kit, and a blot protein band was detected by exposure of an X-ray film; and a Gel-Pro Analyzer was used for quantitative analysis of gray degree, optical density value of the control group and the drug treatment group in various concentration were respectively compared with that of internal reference, the obtained ratios were respectively compared with the control group, and the protein expression level was semi-quantified.

[3] = system: Dvl-3; assay: Western Blotting, Dvl-3 level; type: cell-based; details: human liver cancer cells, Lewis lung cancer cells and other cancer cell lines and tumor tissues, read-out: Effective concentration (IC50) for inhibition of DVl-3
Source text: as §1, §2

[4] = system: ER-alpha; assay: Western Blotting, ER-alpha level; type: cell-based; details: human liver cancer cells, Lewis lung cancer cells and other cancer cell lines and tumor tissues, read-out: Effective concentration (IC50) for inhibition of ER-alpha
Source text: as §1, §2

[5] = system: MMP-9; assay: Western Blotting, MMP9 level; type: cell-based; details: human liver cancer cells, Lewis lung cancer cells and other cancer cell lines and tumor tissues, read-out: Effective concentration (IC50) for inhibition of MMP9
Source text: as §1, §2

[6] = system: MMP-2; assay: Western Blotting, MMP2 level; type: cell-based; details: human liver cancer cells, Lewis lung cancer cells and other cancer cell lines and tumor tissues, read-out: Effective concentration (IC50) for inhibition of MMP2
Source text: as §1, §2

[7] = system: Caspase3; assay: Western Blotting, increase of Caspase3 level; type: cell-based; details: liver cancer cells, Lewis lung cancer cells and other cancer cell lines and tumor tissue protein lysates, 48 h treatment, read-out: Effective concentration to increase Caspase-3 by 50%
Source text: as §1, §2

[8] = target: T1, EZH2 (Mus musculus, UniProt Q61188); assay: EZH2 enzyme activity in protein extracts of LLC tumors of treated mice (EZH2 Assay Kit); details: LLC tumor grown in vivo; tumors excised 6 h after medication; SAHA 25 mg/kg
T1 construct: the EZH2 enzyme was replaced with tumor protein extracts in each group; from tissue; host or cells: Lewis lung cancer tumours from treated mice

[9] = system: HDAC3; assay: HDAC3 enzyme activity in nuclear extracts of LLC tumors of treated mice; details: LLC tumor grown in vivo; first value of the pair HDAC3 and HDAC4; SAHA 25 mg/kg
Method: (§3) For the detection of the effect of the drugs on enzyme activity of EZH2 and HDAC of in-vivo tumors, the tumors were separately excised after 6 h of medication, total proteins and nucleoproteins were extracted separately to detect and analyze the activity of the enzyme.
(§4) (2) 50 μl of diluted sample solution was added into each reaction well, the plate was sealed with a plate-sealing film and reacted at room temperature for 30 min;
(§5) (3) the plate-sealing film was carefully peeled off, the liquid was removed, dried, 150 μl of washing liquid was added into each well, stood for 30 s, then the liquid was removed, repeated twice, and dried;
(§6) (4) 2 μl of HDAC enzyme or tumor tissue nuclear extracts was respectively uniformly mixed with 28 μl of diluted sample solution, added into the wells, the plate was sealed with the plate-sealing film and reacted at 37° C. for 60 min;
(§7) (5) the plate was washed for three times, wherein the operation was the same as that in (3); and a diluted antibody capture working solution was added into each reaction well according to 50 μl/well and reacted on a shaking bed at room temperature for 60 min; […]
(§8) (10) the light absorbance (OD value) of each well was measured in sequence at the wavelength of 450 nm; wherein the measurement should be performed within 15 min after addition of the stop solution; and

[10] = system: HDAC4; assay: HDAC4 enzyme activity in nuclear extracts of LLC tumors of treated mice; details: LLC tumor grown in vivo; second value of the pair HDAC3 and HDAC4; SAHA 25 mg/kg
Method: as §3, §4, §5, §6, §7, §8

[11] = A549 cells, EMSA, nuclear protein extracts, 48 h, read-out: Effective concentration for 50% inhibition of binding of nucleoprotein factor NF-kB (p65) and DNA
[12] = Hela cells, EMSA, nuclear protein extracts, 48 h, read-out: Effective concentration for 50% inhibition of binding of nucleoprotein factor NF-kB (p65) and DNA
[13] = MCF7 cells, EMSA, nuclear protein extracts, 48 h, read-out: Effective concentration for 50% inhibition of binding of nucleoprotein factor NF-kB (p65) and DNA
[14] = MDA-MB231 cells, EMSA, nuclear protein extracts, 48 h, read-out: Effective concentration for 50% inhibition of binding of nucleoprotein factor NF-kB (p65) and DNA
[15] = PANC-1 cells, EMSA, nuclear protein extracts, 48 h, read-out: Effective concentration for 50% inhibition of binding of nucleoprotein factor NF-kB (p65) and DNA
[16] = SMMC7721 cells, EMSA, nuclear protein extracts, 48 h, read-out: Effective concentration for 50% inhibition of binding of nucleoprotein factor NF-kB (p65) and DNA
[17] = human liver cancer cells, Lewis lung cancer cells and other cancer cell lines and tumor tissues, read-out: Effective concentration (IC50) for inhibition of NF-κB-DNA binding activity

T1 sequence (Q61188 whole entry): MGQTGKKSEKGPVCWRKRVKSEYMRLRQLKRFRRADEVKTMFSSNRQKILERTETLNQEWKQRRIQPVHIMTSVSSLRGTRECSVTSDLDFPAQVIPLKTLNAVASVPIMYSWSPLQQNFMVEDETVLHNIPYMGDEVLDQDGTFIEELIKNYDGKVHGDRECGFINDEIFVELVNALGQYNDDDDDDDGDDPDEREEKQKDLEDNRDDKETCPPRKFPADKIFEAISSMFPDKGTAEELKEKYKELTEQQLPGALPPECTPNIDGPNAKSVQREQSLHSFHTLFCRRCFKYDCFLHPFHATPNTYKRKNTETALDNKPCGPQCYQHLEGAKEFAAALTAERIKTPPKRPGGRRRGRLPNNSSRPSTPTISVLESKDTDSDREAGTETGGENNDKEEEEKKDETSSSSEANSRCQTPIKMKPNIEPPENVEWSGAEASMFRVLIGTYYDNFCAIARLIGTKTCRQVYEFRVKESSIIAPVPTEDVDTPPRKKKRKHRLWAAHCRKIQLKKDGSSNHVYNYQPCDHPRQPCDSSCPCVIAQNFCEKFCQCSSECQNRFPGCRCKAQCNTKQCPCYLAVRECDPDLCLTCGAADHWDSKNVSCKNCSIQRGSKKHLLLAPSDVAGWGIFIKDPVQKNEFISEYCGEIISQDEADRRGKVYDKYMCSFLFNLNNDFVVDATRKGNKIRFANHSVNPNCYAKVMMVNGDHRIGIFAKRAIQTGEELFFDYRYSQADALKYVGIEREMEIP
T1 sequence (Q921E6 whole entry partner): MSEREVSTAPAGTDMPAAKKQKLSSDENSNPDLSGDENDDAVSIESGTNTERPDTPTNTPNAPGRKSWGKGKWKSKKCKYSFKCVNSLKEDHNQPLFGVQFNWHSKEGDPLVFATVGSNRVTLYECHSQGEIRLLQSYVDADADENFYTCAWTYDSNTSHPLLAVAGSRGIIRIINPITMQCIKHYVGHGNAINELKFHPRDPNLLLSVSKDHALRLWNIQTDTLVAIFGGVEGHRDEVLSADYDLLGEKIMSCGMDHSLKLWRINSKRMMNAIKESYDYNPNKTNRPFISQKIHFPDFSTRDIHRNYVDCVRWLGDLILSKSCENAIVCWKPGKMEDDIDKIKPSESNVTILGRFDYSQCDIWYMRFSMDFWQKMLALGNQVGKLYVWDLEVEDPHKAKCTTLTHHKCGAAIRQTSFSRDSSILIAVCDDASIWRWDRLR
T1 sequence (Q80U70 whole entry partner): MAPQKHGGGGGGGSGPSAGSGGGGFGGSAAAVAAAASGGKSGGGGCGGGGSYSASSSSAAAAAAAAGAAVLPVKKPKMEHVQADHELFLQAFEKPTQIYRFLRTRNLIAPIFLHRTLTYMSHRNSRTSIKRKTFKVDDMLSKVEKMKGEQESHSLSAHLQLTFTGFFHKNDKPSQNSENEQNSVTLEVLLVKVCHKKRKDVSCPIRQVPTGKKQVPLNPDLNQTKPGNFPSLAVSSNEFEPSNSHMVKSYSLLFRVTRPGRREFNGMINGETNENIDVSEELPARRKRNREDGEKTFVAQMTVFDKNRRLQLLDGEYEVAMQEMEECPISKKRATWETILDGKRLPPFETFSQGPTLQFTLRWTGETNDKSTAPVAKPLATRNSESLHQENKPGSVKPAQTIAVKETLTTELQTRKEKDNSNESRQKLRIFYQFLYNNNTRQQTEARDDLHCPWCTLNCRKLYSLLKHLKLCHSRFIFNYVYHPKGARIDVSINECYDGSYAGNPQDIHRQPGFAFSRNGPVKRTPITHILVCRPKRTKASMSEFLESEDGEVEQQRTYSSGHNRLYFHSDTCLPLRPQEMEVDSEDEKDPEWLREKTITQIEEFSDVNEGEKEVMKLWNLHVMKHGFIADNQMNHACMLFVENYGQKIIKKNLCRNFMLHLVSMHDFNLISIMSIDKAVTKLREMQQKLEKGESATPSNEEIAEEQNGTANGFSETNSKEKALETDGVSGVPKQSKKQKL

Compound	pIC50 [1, 11]	pIC50 [1, 12]	pIC50 [1, 13]	pIC50 [1, 14]	pIC50 [1, 15]	pIC50 [1, 16]	pIC50 [1, 17]	pIC50 [2]	pIC50 [3]	pIC50 [4]	pIC50 [5]	pIC50 [6]	pEC50 [7]	decrease of EZH2 enzyme activity/inhibition rate [8]	pIC50 ([1]; Lewis lung cancer cells, EMSA, nuclear protein extracts, 48 h, read-out: Effective concentration for 50% inhibition of binding of nucleoprotein factor NF-kB (p65) and DNA)	decrease of HDAC3 enzyme activity/inhibition rate [9] [%* and]	decrease of HDAC4 enzyme activity/inhibition rate [10]
CCNC(=O)CC[C@@H](NC(=O)c1cc2cc(Cl)cc(Cl)c2oc1=O)C(=O)OCC [Compound Ig, (R)-2-(6,8-dichloro-2-oxo-2H-benzopyran-3-carboxamido)-5-ethylamino-5-oxo-pentanoic ethyl ester]	> 4.15	> 4.15	> 4.15	> 4.15	> 4.15	> 4.15	> 3.90	> 4.00	> 4.00	> 4.00	> 4.19	> 4.30	> 4.15				
CCNC(=O)CC[C@@H](NC(=O)c1cc2cc(Br)cc(Br)c2oc1=O)C(=O)OCC [Compound Ih, (R)-2-(6,8-dibromo-2-oxo-2H-benzopyran-3-carboxamido)-5-ethylamino-5-oxo-pentanoic ethyl ester]	> 4.15	> 4.15	> 4.15	> 4.15	> 4.15	> 4.15	> 3.90	> 4.00	> 4.00	> 4.00	> 4.19	> 4.30	> 4.15				
CCNC(=O)CC[C@@H](NC(=O)c1cc2cc(Br)ccc2oc1=O)C(=O)OCC [Compound Id, (R)-2-(6-Br-2-oxo-2H-benzopyran-3-carboxamido)-5-ethylamino-5-oxo-pentanoic acid ethyl ester]	> 3.96		> 4.00	> 4.00		> 4.10	> 3.92						> 4.00				
CCNC(=O)CCC(NC(=O)c1cc2ccccc2oc1=O)C(=O)OCC (stereo not shown) [Compound Ib, ethyl 5-ethylamino-5-oxo-2-(2-oxo-2H-benzopyran-3-carboxamido)pentanoate]	> 3.87					> 3.92	> 3.89						> 3.92				
CCNC(=O)CCC(NC(=O)c1cc2ccccc2oc1=O)C(=O)OC (stereo not shown) [Compound Ia, methyl 5-ethylamino-5-oxo-2-(2-oxo-2H-benzopyran-3-carboxamido)pentanoate]						> 3.90	> 3.87						> 3.90	52%(LLC)-	> 3.87	55	52%*(LLC)-
CCNC(=O)CC[C@@H](NC(=O)c1cc2cc(Cl)ccc2oc1=O)C(=O)OCC [Compound Ic, (R)-2-(6-CI-2-oxo-2H-benzopyran-3-carboxamido)-5-ethylamino-5-oxo-pentanoic acid ethyl ester]	> 3.90		> 3.90	> 3.90		> 3.90	> 3.90						> 4.00				
CCNC(=O)CCC(NC(=O)c1cc2cc([N+](=O)[O-])ccc2oc1=O)C(=O)OCC (stereo in doubt) [Compound If, (R)-2-(6-nitro-2-oxo-2H-benzopyran-3-carboxamido)-5-ethylamino-5-oxo-pentanoic acid ethyl ester]	> 4.00		> 4.00	> 4.00		> 4.00	> 4.00						> 4.10				
CCNC(=O)CCC(NC(=O)c1cc2cc(F)ccc2oc1=O)C(=O)OCC (stereo in doubt) [Compound Ie, (R)-2-(6-F-2-oxo-2H-benzopyran-3-carboxamido)-5-ethylamino-5-oxo-pentanoic acid ethyl ester]	> 3.92		> 4.00	> 3.96		> 3.92	> 4.00						> 4.00				
